In patent US20190125745A1, “TREATMENT AND DIAGNOSIS OF CANCER” (Rgenix, Inc., priority 2014, published 2019):

Experiments:
[1] = tested on: MeWo, HT-144, SK-Mel-2, SK-Mel-334.2 human melanoma cells; experiment: Cell invasion assay (trans-well matrigel); assay type: cell-based; conditions: 1 μM, 72 hours; for inhibiting cancer progression phenotypes (cell invasion, endothelial recruitment): MeWo cells, versus lower potency LXR agonists
Description: FIG. 2. Activation of LXRβ Signaling Suppresses Melanoma Cell Invasion and Endothelial Recruitment. (A) Heat-map depicting microarray-based expression levels of LXR and RXR isoforms in the NCI-60 melanoma cell line collection. The heat map for these genes is extracted from the larger nuclear hormone receptor family heat map (FIG. 3). Color-map key indicates the change in standard deviations for the expression value of each receptor relative to the average expression value of all microarray-profiled genes (>39,000 transcript variants) in each cell line. (B) Cell invasion by 1×10^5 MeWo, 5×10^4 HT-144, 5×10^5 SK-Mel-2, and 5×10^4 SK-Mel-334.2 human melanoma cells. Cells were treated with DMSO, GW3965, T0901317, or Bexarotene at 1 μM for 72 hours and subjected to a trans-well matrigel invasion assay. n=4-8. (C) 5×10^4 MeWo, HT-144, SK-Mel-2, and SK-Mel-334.2 human melanoma cells were tested for their ability to recruit 1×10^5 endothelial cells in a trans-well migration assay, following treatment of the melanoma cells with DMSO, GW3965, T0901317, or Bexarotene at 1 μM for 72 hours. n=4-8. […] Scale bar, 50 μm. *p<0.05, **p<0.01, ***p<0.001, ****p<0.0001.
The cell invasion assay was performed as previously described in detail (Pencheva et al., 2012) using a trans-well matrigel invasion chamber system (354480, BD Biosciences). In brief, various melanoma cells were cultured in the presence of DMSO, GW3965, T0901317, or Bexarotene at 1 μM for 56 hours, after which melanoma cells were switched to starvation media (0.2% FBS) for 16 hours in the presence of each drug. Following starvation, cells were seeded into matrigel-coated trans-well inserts, and the invasion assay was allowed to proceed for 24 hours at […]. For ApoE antibody neutralization experiments, 40 μg/mL 1 D7 anti-ApoE blocking antibody (Heart Institute, University of Ottawa, Ottawa, Canada) or […] anti-IgG control antibody (AB-108-C, R&D Systems, Minneapolis, Minn.) was added to each trans-well insert at the start of the assay.
The cells were then serum starved for 16 hours in 0.2% FBS media in the presence of each corresponding drug or DMSO. Following serum starvation, the cells were subjected to the trans-well invasion assay using a matrigel invasion chamber system (354480, BD Biosciences). Invasion chambers were pre-equilibrated prior to the assay by adding 0.5 mL of starvation media to the top and bottom wells. Meanwhile, cancer cells were trypsinized and viable cells were counted using trypan blue. Cancer cells were then resuspended at a concentration of 2×10^5 cells/1 mL starvation media, and 0.5 mL of cell suspension, containing 1×10^5 cells, was seeded into each trans-well. The invasion assay was allowed to proceed for 24 hours at 37° C. […] Following fixation, the inserts were washed in PBS, cut out, and mounted onto slides using VectaShield mounting medium containing DAPI nuclear stain (H-1000, Vector Laboratories). The basal side of each insert was imaged using an inverted fluorescence microscope (Zeiss Axiovert 40 CFL) at 5× magnification, and the number of DAPI-positive cells was quantified using ImageJ.

[2] = tested on: B16F10 mouse melanoma cells; experiment: Subcutaneous B16F10 tumor growth in C57BL/6 mice; assay type: in vivo; conditions: for melanoma primary tumor growth in vivo (B16F10): chow, WO-2010-0138598 Ex. 9 10 or 100 mg/kg/day, SB742881 100 mg/kg/day
Description: FIG. 4. Therapeutic LXR Activation Inhibits Melanoma Tumor Growth. […] Representative tumor images shown correspond to tumors extracted at the final day (d12). n=10-18 (A), 8-10 (B). (C-E) Primary tumor growth by 1×10^6 MeWo (C), […] SK-Mel-334.2 (D), and 2×10^6 SK-Mel-2 (E) human melanoma cells subcutaneously injected into immunocompromised mice. […] Tumor images shown correspond to last day of measurements. n=6-34 (C), 8 (D), 5 (E). (F) 5×10^4 B16F10 cells were injected subcutaneously into C57BL/6-WT mice. Upon tumor growth to 150 mm^3, mice were fed continuously with a control chow or a chow containing GW3965 (150 mg/kg), and tumor growth was measured daily. n=6-13. […] Tumor volume was calculated as (small diameter)^2×(large diameter)/2. […] Scale bars, 5 mm (A-D), 50 μm (J, K), 25 μm (L).
The mice were palpated daily for tumor formation and after detection of tumors measuring […] in volume, the mice were assigned to a control chow or a chow containing each respective LXR agonist: LXR-623 (20 mg/kg/day), WO-2007-002563 Ex. 19 (100 mg/kg/day), WO-2010-0138598 Ex. 9 (10 mg/kg/day or 100 mg/kg/day), or SB742881 (100 mg/kg/day). The LXR drug compounds were formulated in the mouse chow by Research Diets, Inc. Tumor dimensions were measured using digital calipers, and tumor volume was calculated as (small diameter)^2×(large diameter)/2.

[3] = tested on: ApoE expression; experiment: ApoE expression by qRT-PCR in human melanoma cells
Description: (A-B) Parental MeWo cells were incubated in the presence of DMSO or GW3965 at the indicated concentrations. After 48 hours, total RNA was extracted, and the levels of ApoE (A) and DNAJA4 (B) were determined by qRT-PCR. n=3. (C) Cell invasion by 1×10^5 parental MeWo cells pre-treated with GW3965 or DMSO for 48 hours. n=6-7. p-values based on a one-sided student's t-test. […] (D) Endothelial recruitment by 5×10^4 parental MeWo cells pre-treated with GW3965 or DMSO for 48 hours. n=6-7. p-values based on a one-sided student's t-test. (E) Mice were fed with grain-based chow diet containing GW3965 (20 mg/kg) or a control diet. After 10 days, 4×10^4 parental MeWo cells were tail-vein injected into mice, and the mice were continuously fed with GW3965-containing chow or a control diet throughout the experiment.
(A-C) MeWo (A), HT-144 (B), and WM-266-4 (C) human melanoma cells were treated with GW3965 or T0901317 at the indicated concentrations for 48 hours, and the expression levels of ApoE were analysed by qRT-PCR. n=3. (D) Extracellular ApoE protein levels, quantified by ELISA, in serum-free conditioned media collected from HT-144 human melanoma cells treated with DMSO, GW3965, or T0901317 at 1 μM for 72 hours. n=3-4. […] (I-J) Relative ApoE expression, quantified by qRT-PCR, in MeWo (I) and HT-144 (J) cells transduced with a control shRNA or shRNAs targeting LXRα or LXRβ and subsequently treated with DMSO, GW3965, or T0901317 at 1 μM for 48 hours. n=3-9. (K) Extracellular ApoE protein levels, measured by ELISA, in serum-free conditioned media harvested from HT-144 cells transduced with a control shRNA or an shRNA targeting LXRα or LXRβ and treated with DMSO or GW3965 at 1 μM for 72 hours. n=3.
RNA was extracted from whole cell lysates using the Total RNA Purification Kit (17200, Norgen, Thorold, Canada). 600 ng of total RNA was then reverse transcribed into cDNA using the cDNA First-Strand Synthesis Kit (18080-051, Invitrogen), and quantitative real-time PCR amplification was performed as previously described (Pencheva et al., 2012) using an ABI Prism 7900HT Real-Time PCR System (Applied Biosystems, Austin, Tex.). […]
For every sample, 600 ng of RNA was reverse transcribed into cDNA using the cDNA First-Strand Synthesis kit (Invitrogen). […] Each reaction was carried out in quadruplicates, and ApoE mRNA expression levels were measured by quantitative real-time PCR amplification using an ABI Prism 7900HT Real-Time PCR System (Applied Biosystems). The relative ApoE expression was determined using the ΔΔCt method.

[4] = biological target: T1, LXRα (Homo sapiens, UniProt Q13133); conditions: cited from earlier work
T1 sequence (Q13133 1-447): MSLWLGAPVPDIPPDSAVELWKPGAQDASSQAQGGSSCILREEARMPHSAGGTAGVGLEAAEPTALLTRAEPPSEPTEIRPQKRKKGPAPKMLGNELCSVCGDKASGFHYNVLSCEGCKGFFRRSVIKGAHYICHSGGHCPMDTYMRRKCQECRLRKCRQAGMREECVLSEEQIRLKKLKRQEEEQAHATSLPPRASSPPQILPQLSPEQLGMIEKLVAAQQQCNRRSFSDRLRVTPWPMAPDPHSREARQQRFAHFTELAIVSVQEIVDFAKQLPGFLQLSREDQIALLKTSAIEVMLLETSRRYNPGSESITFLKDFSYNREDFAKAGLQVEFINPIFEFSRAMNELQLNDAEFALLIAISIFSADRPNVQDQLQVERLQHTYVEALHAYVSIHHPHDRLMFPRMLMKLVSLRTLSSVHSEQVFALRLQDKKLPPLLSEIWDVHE

[5] = tested on: ApoE promoter; experiment: ApoE promoter activity assay (luciferase, ME.1/ME.2); assay type: cell-based, human; conditions: 1 μM
Description: FIG. 11. LXRβ Activation Suppresses Melanoma Invasion and Endothelial Recruitment by Transcriptionally Enhancing Melanoma-Cell ApoE Expression. […] Scale bar, 50 μm.
The ApoE promoter, consisting of a sequence spanning 980 base pairs upstream and 93 base pairs downstream of the ApoEgene, was cloned into a pGL3-Basic vector (E1751, Promega Corporation, Madison, Wis.) upstream of the firefly luciferase gene using NheI and SacI restriction enzymes. Then, multi-enhancer elements 1 (ME.1) and 2 (ME.2) were cloned directly upstream of the ApoE promoter using MluI and […] restriction enzymes. To assess ApoE promoter- and ME.1/ME.2-driven transcriptional activation by LXR agonists, 5×10^4 MeWo cells were seeded into a 24-well plate. […] To assess transcriptional activation by LXRα or LXRβ, 5×10^4 MeWo cells expressing a control shRNA or shRNA targeting LXRα or LXRβ were seeded into a 24-well plate. […] After 24 hours, cells were lysed, and cell lysate was analyzed for firefly and renilla luciferase activity using the Dual Luciferase Assay System (E1960, Promega) and a Bio-Tek Synergy NEO Microplate Reader. Firefly luciferase signal was normalized to renilla luciferase signal and all data are expressed relative to the luciferase activity ratio measured in the DMSO-treated control cells.

| Structure (SMILES) | inhibiting cancer progression phenotypes (cell invasion, endothelial recruitment) [1] | melanoma primary tumor growth in vivo (B16F10) [2] | potency of inducing ApoE expression in vitro [3] | EC50 [4] [nM] | ability to suppress invasion and endothelial recruitment upon knockdown of melanoma LXRβ, but not LXRα ([1]; MeWo, HT-144) | primary tumor growth in vivo (FIG. 4) ([2]; mouse, in vivo) | ability to upregulate ApoE transcription and protein expression upon melanoma cell depletion of LXRβ, but not LXRα [5] |
| --- | --- | --- | --- | --- | --- | --- | --- |
| CC(C)(O)c1cn(-c2ccc(-c3cc(F)c(CO)c(S(C)(=O)=O)c3)cc2F)c(C(C)(C)c2c(Cl)cccc2Cl)n1 [Compound 112] | more effective | significantly inhibited | potently induce | – | – | – | – |
| CC(C)(O)c1cn(-c2ccc(-c3cccc(S(C)(=O)=O)c3)cc2)c(C(C)(C)c2ccccc2Cl)n1 [Compound 113] | – | – | – | 101 to 1000 | – | – | – |
| CC(CCOc1cccc(CC(=O)O)c1)N(Cc1cccc(C(F)(F)F)c1Cl)CC(c1ccccc1)c1ccccc1 (centres unmarked) [SB742881 109] | more effective | significantly inhibited | potently induce | – | – | – | – |
| O=S(=O)(c1ccccc1)N(CC(F)(F)F)c1ccc(C(O)(C(F)(F)F)C(F)(F)F)cc1 [TO901317 110] | – | – | potently induce | – | abrogated | inhibit | abrogated |
